Data: PMC8789663 (The Journal of Biological Chemistry, 2021)
Blank lines part the entries; values can stand above or below the compound they belong to.

Key:
Epac1 and Epac2 = conditions: unconjugated Rp-8-Br-cAMPS; cited from earlier work
Text: (§1) A selective effect is possible based on our previous report that the cAMP antagonist prodrug Rp-8-Br-cAMPS-pAB abolished first-phase but not second-phase GSIS in response to glucose alone ([25]).

PKA [1] = conditions: unconjugated Rp-8-Br-cAMPS; cited from earlier work
Text: as §1

rat islets [2] = experiment: Perifusion assay of rat islet GSIS, linear glucose gradient; assay type: cell-based, Sprague–Dawley rat
rat perfused pancreas = conditions: ref 11 (Moens et al.); cited from earlier work
PKA [3] = test system: T1, PKA; experiment: Live-cell FRET assay (435 nm excitation, 485/535 emission ratio, pH 7.4) with PKA substrate reporter AKAR3; inhibition of PKA activity stimulated by GLP-1.; assay type: cell-based, INS-1 832/13 cells transduced with AKAR3; conditions: n = 12
T1 construct: endogenous PKA, read out indirectly with FRET reporter AKAR3 (PKA substrate)

β-cell GSIS = conditions: cited from earlier work
Text: as §1

rat islets [4] = experiment: Perifusion assay of rat islet GSIS, step-wise glucose increase 2.8 to 16.7 mM; conditions: for block of potentiation of GSIS by GLP-1 (1 nM), PLC inhibitor or negative control: 1 µM, pretreatment for 40 min; for effect of PLC inhibitor or negative control alone on GSIS: 1 µM in Fig. S2; for potentiation of first and second phase GSIS by cyclic nucleotide analog prodrug: 10 μM, representative of six independent experiments; for block of potentiation of GSIS by GLP-1, PKC inhibitors: 10 µM
Epac = conditions: read-out: IC50, block of GLP-1-stimulated cAMP (H188); INS-1 832/13 cells transduced with H188, GLP-1 stimulated
GcgR = conditions: cited from earlier work
GLP-1R = conditions: cited from earlier work
mouse islets = conditions: cited from earlier work
islets = conditions: raising levels of cAMP; cited from earlier work
Text: Identifying the mechanism for this switch from cAMP-independent to cAMP-dependent insulin secretion is of great interest. Shibasaki et al. ([33]) reported a cAMP-regulated mechanism of insulin secretion that results from “restless newcomer” exocytosis in which Epac2 activation mobilizes cytoplasmic secretory granules so that they quickly transit to the plasma membrane for release without pausing in a “docked” state. When islets are stimulated with glucose alone, this newcomer exocytosis is more prominent during first-phase as compared with second-phase GSIS. Raising levels of cAMP by treatment ...

[5] = molecular target: endogenous rat GLP-1 receptor (rat (endogenous in INS-1 832/13 cells and rat islets)) (UniProt P32301)
[6] = Rp-8-Br-cAMPS-pAB 10 μM, five independent experiments

Sequence of endogenous rat GLP-1 receptor (rat (endogenous in INS-1 832/13 cells and rat islets)) (P32301 22-463): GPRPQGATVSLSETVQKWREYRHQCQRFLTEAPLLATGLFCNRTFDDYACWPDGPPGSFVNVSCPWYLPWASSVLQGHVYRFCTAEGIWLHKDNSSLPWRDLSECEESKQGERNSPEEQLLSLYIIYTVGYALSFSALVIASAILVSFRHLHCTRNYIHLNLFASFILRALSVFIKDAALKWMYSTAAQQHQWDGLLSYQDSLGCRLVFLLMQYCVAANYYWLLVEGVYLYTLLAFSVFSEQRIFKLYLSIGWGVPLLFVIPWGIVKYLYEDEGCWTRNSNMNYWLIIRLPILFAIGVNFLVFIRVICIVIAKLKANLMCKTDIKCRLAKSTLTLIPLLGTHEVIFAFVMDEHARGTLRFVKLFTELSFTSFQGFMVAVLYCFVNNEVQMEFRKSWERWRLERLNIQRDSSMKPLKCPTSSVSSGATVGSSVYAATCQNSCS

Compound: Nc1ncnc2c1nc(Br)n2C1OC2COP(O)(=S)OC2C1O (centres unmarked) [Rp-8-Br-cAMPS]
inhibition of stimulatory effects of endogenous cAMP at Epac1 and Epac2 (Epac1 and Epac2): competitively inhibits
inhibition of stimulatory effects of endogenous cAMP at PKA (PKA [1]): competitively inhibits

Compound: des-His^1-Glu^9-glucagon
effect on glucagon-potentiated GSIS in the gradient assay (rat islets [2]; des-His1-Glu9-glucagon 3 µM vs glucagon 10 nM, single experiment): not inhibited
effect on GSIS stimulated by a glucose gradient alone (rat islets [2]; des-His1-Glu9-glucagon 3 µM, single experiment): failed to inhibit
insulin secretion in response to glucose alone, perfused rat pancreas (rat perfused pancreas): not reduced

Compound: CC(=O)Oc1ccc(CSP2(=O)OC[C@H]3O[C@@H](n4c(Br)nc5c(N)ncnc54)[C@H](O)[C@@H]3O2)cc1 (some centres unmarked) [Rp-8-Br-cAMPS-pAB, Rp-8-Br-cAMPS para-acetoxybenzyl (pAB) ester; membrane-permeable prodrug bioactivated by cytosolic esterases to Rp-8-Br-cAMPS]
IC50 (PKA [3]): 2.8 µM

Compound: CC(=O)Oc1ccc(CSP2(=O)OC[C@H]3O[C@@H](n4c(Br)nc5c(N)ncnc54)[C@H](O)[C@@H]3O2)cc1 (some centres unmarked) [Rp-8-Br-cAMPS-pAB]
effect on glucagon-potentiated GSIS in the gradient assay (rat islets [2]; Rp-8-Br-cAMPS-pAB 10 μM vs glucagon 10 nM): blocked
effect on GSIS stimulated by a glucose gradient alone (rat islets [2]; Rp-8-Br-cAMPS-pAB 10 μM, three independent experiments): failed to inhibit
effect on first-phase GSIS in response to glucose alone (β-cell GSIS): abolished
effect on second-phase GSIS in response to glucose alone (β-cell GSIS): not
antagonist action versus 5 nM GLP-1 in comparison with 1 nM GLP-1 (rat islets [4]; Rp-8-Br-cAMPS-pAB 10 μM): weaker
block of potentiation of GSIS by glucagon (rat islets [4]; Rp-8-Br-cAMPS-pAB 10 μM vs 10 nM glucagon, three independent experiments): blocked
block of potentiation of first and second phase GSIS by GLP-1 (rat islets [4]; Rp-8-Br-cAMPS-pAB 10 μM vs GLP-1 5, 1, and 0.1 nM): blocked
effect on second-phase GSIS in the presence of GLP-1 (rat islets [4]; Rp-8-Br-cAMPS-pAB 10 μM, GLP-1 1 nM): greatly reduced the amplitude of second-phase GSIS
effect on first-phase GSIS in response to glucose alone (rat islets [4]; [6]): blocked first-phase GSIS
effect on second-phase GSIS in response to glucose alone (rat islets [4]; [6]): little ability to reduce second-phase GSIS
IC50 (Epac): 1.4 µM

Compound: COc1ccc2cc(-c3cc(-c4cc(Cl)cc(Cl)c4)nn3[C@@H](C)c3ccc(C(=O)NCCC(=O)O)cc3)ccc2c1 [MK0893]
glucagon action at the GcgR (GcgR): antagonizes
action at the GLP-1R (GLP-1R): antagonizes
glucagon-stimulated insulin secretion from mouse islets (mouse islets): inhibit

Compound: COc1ccc2c(c1)CC[C@@H]1[C@@H]2CC[C@]2(C)[C@@H](NCCCCCCN3C(=O)CCC3=O)CC[C@@H]12 [U73343]
block of potentiation of GSIS by GLP-1 (1 nM), PLC inhibitor or negative control (rat islets [4]; GLP-1 1 nM): failed to block
effect of PLC inhibitor or negative control alone on GSIS (rat islets [4]): not reproduced

Compound: CO[C@@H]1[C@@H]2OP(=O)(OCOC(C)=O)OC[C@H]2O[C@H]1n1c(Sc2ccc(Cl)cc2)nc2c(N)ncnc21 (some centres unmarked) [8-pCPT-2′-O-Me-cAMP-AM]
potentiation of first and second phase GSIS by cyclic nucleotide analog prodrug (rat islets [4]): potentiated

Compound: C=C[C@@]1(C)CC(=O)[C@]2(O)[C@@]3(C)[C@@H](O)CCC(C)(C)[C@@H]3[C@H](O)[C@H](OC(C)=O)[C@@]2(C)O1 [forskolin]
newcomer exocytosis during first-phase (islets): potentiates
newcomer exocytosis during second-phase (islets): greatly increasing

Compound: Cn1cc(C2=C(c3cn(CCCSC(=N)N)c4ccccc34)C(=O)NC2=O)c2ccccc21 [Ro 31-8220]
block of potentiation of GSIS by GLP-1, PKC inhibitors (rat islets [4]): failed to block

Compound: CN(C)C[C@@H]1CCn2cc(c3ccccc32)C2=C(C(=O)NC2=O)c2cn(c3ccccc23)CCO1 [LY 333531]
block of potentiation of GSIS by GLP-1, PKC inhibitors (rat islets [4]): failed to block

PKA activity (AKAR3 FRET reporter) in INS-1 832/13 cells [5]: 88 pM
rise of cAMP (H188 FRET reporter) in INS-1 832/13 cells [5]: 1.9 nM
Compound: GLP-1[7-36]amide (ligand)

Compound: COc1ccc2c(c1)CC[C@@H]1[C@@H]2CC[C@]2(C)[C@@H](NCCCCCCN3C(=O)C=CC3=O)CC[C@@H]12 [U73122]
block of potentiation of GSIS by GLP-1 (1 nM), PLC inhibitor or negative control (rat islets [4]; GLP-1 1 nM): failed to block
effect of PLC inhibitor or negative control alone on GSIS (rat islets [4]): potentiated GSIS

Compound: CC(=O)OCOP1(=O)OCC2OC(n3cnc4c(NC(=O)c5ccccc5)ncnc43)C(O)C2O1 (centres unmarked) [6-Bnz-cAMP-AM]
potentiation of first and second phase GSIS by cyclic nucleotide analog prodrug (rat islets [4]): potentiated
